Measurements published in article PMC12274840 (The Journal of Biological Chemistry, 2025).
“And” between values parts separate entries of the source, which are not always exact repeats. Identical values can stand only once. Like-named read-outs stand apart in the source and are kept apart here.

Key:
[1] = system: E. coli KA797 cells carrying pUK21 with BlaC WT (Tat); assay: microbe, parasite or virus in culture; type: cell-based; conditions: in combination with 100 μg/ml carbenicillin
[2] = system: E. coli KA797 cells carrying pUK21 with CTX-M-14 WT (Tat); assay: microbe, parasite or virus in culture; type: cell-based; conditions: in combination with 100 μg/ml carbenicillin
[3] = system: E. coli KA797 cells carrying pUK21 with KPC-2 (Tat); assay: microbe, parasite or virus in culture; type: cell-based; conditions: in combination with 100 μg/ml carbenicillin
[4] = system: E. coli KA797 cells carrying pUK21 with NmcA (pelB/Sec); assay: microbe, parasite or virus in culture; type: cell-based; conditions: in combination with 25 μg/ml carbenicillin
[5] = system: E. coli KA797 cells carrying pUK21 with TEM-1 WT (Sec); assay: microbe, parasite or virus in culture; type: cell-based; conditions: in combination with 100 μg/ml carbenicillin
[6] = system: E. coli KA797 cells carrying pUK21 with BlaC I105R; type: cell-based, Escherichia coli; conditions: in combination with 100 μg/ml carbenicillin
[7] = system: E. coli KA797 cells carrying pUK21 with BlaC I105G; type: cell-based, Escherichia coli; conditions: in combination with 100 μg/ml carbenicillin
[8] = system: E. coli KA797 cells carrying pUK21 with CTX-M-14 Y105R; type: cell-based, Escherichia coli; conditions: in combination with 100 μg/ml carbenicillin
[9] = system: E. coli KA797 cells carrying pUK21 with CTX-M-14 Y105G; type: cell-based, Escherichia coli; conditions: in combination with 100 μg/ml carbenicillin
[10] = system: E. coli KA797 cells carrying pUK21 with TEM-1 Y105R; type: cell-based, Escherichia coli; conditions: in combination with 100 μg/ml carbenicillin
[11] = system: E. coli KA797 cells carrying pUK21 with TEM-1 Y105G; type: cell-based, Escherichia coli; conditions: in combination with 100 μg/ml carbenicillin
BlaC WT = biological target: T1, BlaC WT (Mycobacterium tuberculosis, UniProt P9WKD3); type: biochemical
T1 construct: correspond to residue numbers 41-307 of BlaC (Uniprot entry P9WKD3-1); His tag with TEV cleavage site (N); made in house; host or cells: E. coli BL21 (DE3) pLysS

CTX-M-14 WT = biological target: T2, CTX-M-14 WT (Escherichia coli, UniProt Q9L5C7); assay: biochemical
T2 construct: 29 to 291 of CTX-M-14 (Q9L5C7); His tag with TEV cleavage site (N); made in house; host or cells: E. coli BL21 (DE3) pLysS

CTX-M-14 Y105G = biological target: T3, CTX-M-14 Y105G (Escherichia coli, UniProt Q9L5C7, Y108G); assay: biochemical
T3 construct: 29 to 291 of CTX-M-14 (Q9L5C7); His tag with TEV cleavage site (N); made in house; host or cells: E. coli BL21 (DE3) pLysS

TEM-1 Y105G = TEM-1 Y105G (Escherichia coli, UniProt P62593, Y103G); assay: In vitro inhibition of nitrocefin hydrolysis and simulation of inhibition curves, TEM-1 Y105G; type: biochemical; conditions: avibactam, simulation Eq 3/9
[12] = system: E. coli KA797 cells carrying BlaC position 105 library; type: cell-based, Escherichia coli; conditions: for Fi AVG (average fitness): average of replicates
TEM-1 WT = TEM-1 WT (Escherichia coli, UniProt P62593); type: biochemical; design: 24 to 286 of TEM-1 (P62593); His tag with TEV cleavage site (N); made in house; host or cells: E. coli BL21 (DE3) pLysS; conditions: avibactam, TEM-1 WT
[13] = avibactam, simulation Eq 3/9, CTX-M-14 WT
[14] = avibactam, simulation Eq 3/9, CTX-M-14 Y105G

T1 sequence (P9WKD3 41-307): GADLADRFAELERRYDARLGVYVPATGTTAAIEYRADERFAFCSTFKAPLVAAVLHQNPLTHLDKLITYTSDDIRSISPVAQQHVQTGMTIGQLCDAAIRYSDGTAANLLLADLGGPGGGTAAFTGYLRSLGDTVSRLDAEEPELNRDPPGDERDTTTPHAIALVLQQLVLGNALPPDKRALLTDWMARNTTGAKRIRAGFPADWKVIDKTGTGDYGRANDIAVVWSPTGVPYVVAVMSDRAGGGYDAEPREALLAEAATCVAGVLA

Molecule `NC(=O)[C@@H]1CC[C@@H]2CN1C(=O)N2OS(=O)(=O)O` [avibactam] has an MIC of inhibitor [1] of 16 µg/mL, an MIC of inhibitor [2] of 0.5 µg/mL and an MIC of inhibitor [3] of 0.5 µg/mL. The MIC of inhibitor [4] was 0.5 µg/mL, the MIC of inhibitor [5] was 1 µg/mL and the MIC of inhibitor [6] was 64 µg/mL. It also gave an MIC of inhibitor [7] of 32 µg/mL, an MIC of inhibitor [8] of 1 µg/mL and an MIC of inhibitor [9] of 2 µg/mL. The MIC of inhibitor [10] was 4 µg/mL, the MIC of inhibitor [11] was 16 µg/mL and the k2 (BlaC WT) was 6.5 and 6.5 10^−2 s^−1. The k-2 (BlaC WT) was 0.1 and 0.1 10^−3 s^−1, the Ki (CTX-M-14 WT) was 0.47 µM and the k2 (CTX-M-14 WT; [13]) was 6.6 10^−2 s^−1. The k-2 (CTX-M-14 WT; [13]) was 0.3 10^−3 s^−1, the k1 (CTX-M-14 WT; avibactam, simulation Eq 9, CTX-M-14 WT) was 1e+06 M⁻¹ s⁻¹ and the Ki (CTX-M-14 Y105G) was 50 µM. For the same molecule, the k2 (CTX-M-14 Y105G; [14]) was 4.6 10^−2 s^−1, the k-2 (CTX-M-14 Y105G; [14]) was 0.25 10^−3 s^−1 and the k2 (TEM-1 Y105G) was 5 10^−2 s^−1. For the same molecule, the k-2 (TEM-1 Y105G) was 0.75 10^−3 s^−1, the “Fi AVG (average fitness)” value ([12]; AA 105 Ala (BlaC I105A), relative to WT Ile) was 0.716 and the “Significance of average fitness” value ([12]; AA 105 Arg (BlaC I105R)) was “+”. The “Fi AVG (average fitness)” value ([12]; AA 105 Arg (BlaC I105R), relative to WT Ile) was 2.021, the “Fi AVG (average fitness)” value ([12]; AA 105 Asn (BlaC I105N), relative to WT Ile) was -0.462 and the “Fi AVG (average fitness)” value ([12]; AA 105 Asp (BlaC I105D), relative to WT Ile) was 0.306. For the same molecule, the “Fi AVG (average fitness)” value ([12]; AA 105 Cys (BlaC I105C), relative to WT Ile) was 0.512, the “Significance of average fitness” value ([12]; AA 105 Gln (BlaC I105Q)) was “+” and the “Fi AVG (average fitness)” value ([12]; AA 105 Gln (BlaC I105Q), relative to WT Ile) was 1.438. For the same molecule, the “Fi AVG (average fitness)” value ([12]; AA 105 Glu (BlaC I105E), relative to WT Ile) was 0.205, the “Significance of average fitness” value ([12]; AA 105 Gly (BlaC I105G)) was “+” and the “Fi AVG (average fitness)” value ([12]; AA 105 Gly (BlaC I105G), relative to WT Ile) was 2.428. The “Fi AVG (average fitness)” value ([12]; AA 105 His (BlaC I105H), relative to WT Ile) was 0.810, the “Fi AVG (average fitness)” value ([12]; AA 105 Ile (BlaC WT, reference)) was 0.000 and the “Significance of average fitness” value ([12]; AA 105 Leu (BlaC I105L)) was “+”. The “Fi AVG (average fitness)” value ([12]; AA 105 Leu (BlaC I105L), relative to WT Ile) was 1.665, the “Significance of average fitness” value ([12]; AA 105 Lys (BlaC I105K)) was “+” and the “Fi AVG (average fitness)” value ([12]; AA 105 Lys (BlaC I105K), relative to WT Ile) was 0.933. For the same molecule, the “Fi AVG (average fitness)” value ([12]; AA 105 Met (BlaC I105M), relative to WT Ile) was 0.542, the “Significance of average fitness” value ([12]; AA 105 Phe (BlaC I105F)) was “+” and the “Fi AVG (average fitness)” value ([12]; AA 105 Phe (BlaC I105F), relative to WT Ile) was 2.659. For the same molecule, the “Significance of average fitness” value ([12]; AA 105 Pro (BlaC I105P)) was “-”, the “Fi AVG (average fitness)” value ([12]; AA 105 Pro (BlaC I105P), relative to WT Ile) was -1.222 and the “Significance of average fitness” value ([12]; AA 105 Ser (BlaC I105S)) was “+”. For the same molecule, the “Fi AVG (average fitness)” value ([12]; AA 105 Ser (BlaC I105S), relative to WT Ile) was 1.393, the “Significance of average fitness” value ([12]; AA 105 Thr (BlaC I105T)) was “+” and the “Fi AVG (average fitness)” value ([12]; AA 105 Thr (BlaC I105T), relative to WT Ile) was 1.333. For the same molecule, the “Significance of average fitness” value ([12]; AA 105 Trp (BlaC I105W)) was “+”, the “Fi AVG (average fitness)” value ([12]; AA 105 Trp (BlaC I105W), relative to WT Ile) was 2.468 and the “Significance of average fitness” value ([12]; AA 105 Tyr (BlaC I105Y)) was “+”. The “Fi AVG (average fitness)” value ([12]; AA 105 Tyr (BlaC I105Y), relative to WT Ile) was 3.416, the “Fi AVG (average fitness)” value ([12]; AA 105 Val (BlaC I105V), relative to WT Ile) was -0.187 and the “WT abs Fi 1” value ([12]; absolute fitness of BlaC WT (Ile 105), replicate 1) was -1.354. The “WT abs Fi 2” value ([12]; absolute fitness of BlaC WT (Ile 105), replicate 2) was -1.584, the “WT abs Fi 3” value ([12]; absolute fitness of BlaC WT (Ile 105), replicate 3) was -0.942 and the k2 (TEM-1 WT; simulation Eq 3/9) was 5.7 10^−2 s^−1. The k-2 (TEM-1 WT; simulation Eq 3/9) was 0.2 10^−3 s^−1 and the k1 (TEM-1 WT; simulation Eq 9) was 1e+06 M⁻¹ s⁻¹.
